This is an account of results in patent US4294838A, “Certain heterocyclic sulfoximide derivatives” (priority 1977, dated 1981).

Data set [1] can be described thus: Acute toxicity in mice (LD50, Litchfield and Wilcoxon). To be noted: mouse, in vivo, male NRMI mice. The protocol:
The acute toxicity has been determined in male mice (NRMI strain) weighing 17 to 21 g. The animals were fasted 24 hours prior to the trial. Water was offered ad libidum. The substances were administered subcutaneously and by using a gastric tube in increasing doses to groups consisting of 6 animals. The animals were observed over a period of 24 hours. The LD50 values were determined according to the method of Litchfield and Wilcoxon (Therap. Grundlagen der experimentellen Arzneimittelforschung--Ther. Fundamentals of Experimental Durg Research--1965--page 82). The findings were compiled as average values in the following tables: […]

The subject of data set [2] is ileum preparations, acetylcholine spasm. The data set can be described thus: Spasmolytic activity on isolated ileum (Magnus), acetylcholine spasm. More on the design: species or system Guinea pigs. Conditions: Cavia porcellus, guinea pig ileum, 37° C, acetylcholine 4×10^-7 g/ml; for IC50: read-out: ED50 Acetylcholine (spasmolytic). The protocol: (§1) The method described by Magnus was employed [Therap. Grundlagen der Experimentellen Arzneimittelforschung, Wiss. Verlagsgesellschaft, Stuttgart (1965) page 241].
(§2) Guinea pigs of both sexes weighing between 200 and 500 g were killed by cervical blow. After that they were allowed to bleed and then laparotomized. About 15 cm of the distal ileum were then placed into a Krebs-Henseleit-solution at 37° C.
(§3) Ileum preparations of about 1 cm length were fixed in a special vessel containing 25 ml of the Krebs-Henseleit-solution which were percolated by a gas mixture (Carbogen) consisting of 95% oxygen and 5% carbon dioxide. The temperature of the bath was maintained at 37° C. The movements of the ileum preparations were observed by a lampblack-kymograph.
(§4) Every 10 minutes single spasms were caused with solutions of acetylcholine (4×10^-7 g/ml) barium chloride (4×10^-4 g/ml) and histamine (8×10^-6 g/ml) in the Krebs-Henseleit-solution. Five minutes after application the spasms were stopped by rinsing the ileum segments with a Krebs-Henseleit-solution which was free of spasmodics. The tested compounds were added to ther Krebs-Henseleit-solution 2 minutes after causing the spasms.

Data set [3] has as its system acetylcholine-spasm (bronchospasm). As to the kind of experiment: Bronchospasmolytic activity (Konzett and Roessler), acetylcholine-spasm. It is filed as in vivo, guinea pigs. To be noted: Cavia porcellus, iv, 2 min; guinea pig, i.v., 2 min before acetylcholine; read-out: ED100 Acetyl-choline (bronchospasmolytic). The protocol:
(§5) The method described by Konzett and Roessler was employed (Arch.exp.Path.Pharmak. 195, 72 (1940).
(§6) Experimental animals were guinea pigs weighing between 280 and 380 g. The animals were kept under urethane narcosis (1.5 g/kg i.m.) and their chests opened. The animals received artificial respiration by means of a respiratory pump. The respiratory pressure was adjusted by a mercury manometer. Every 4 minutes a bronchospasm was caused by intravenous application (vena jugularis) of spasmodics. These were acetylcholine and histamine. Two minutes prior to the injection of a spasmodic, the substances under investigation were administered, i.e. again by intravenous injection. […] With respect to the histamine-spasm they were active in the range of […].

Data set [4] deals with ileum preparations, barium chloride spasm. The data set can be described thus: Spasmolytic activity on isolated ileum (Magnus), barium chloride spasm. Conditions: Cavia porcellus, guinea pig ileum, 37° C, barium chloride 4×10^-4 g/ml; for IC50: read-out: ED50 Barium-Chloride (spasmolytic). Further details: species or system Guinea pigs. The protocol:
as §1, §2, §3, §4

In data set [5] the test system is ileum preparations, histamine spasm. The data set can be described thus: Spasmolytic activity on isolated ileum (Magnus), histamine spasm. More on the design: species or system Guinea pigs. To be noted: Cavia porcellus, guinea pig ileum, 37° C, histamine 8×10^-6 g/ml; for IC50: read-out: ED50 Histamine (spasmolytic). The protocol: as §1, §2, §3, §4
For data set [6], the system named is histamine-spasm (bronchospasm). As to the kind of experiment: Bronchospasmolytic activity (Konzett and Roessler), histamine-spasm. It is filed as in vivo, guinea pigs. To be noted: Cavia porcellus, iv, 2 min; guinea pig, i.v., 2 min before histamine. The protocol:
as §5, §6

The mark [7] stands for this setting: po, w.i.g. (gastric tube), read-out: Acute Toxicity LD50, w.i.g.
[8] abbreviates: sc, subcutaneous, read-out: Acute Toxicity LD50, S.C.

Converted amounts (≈) assume the structure as drawn. Like-named read-outs stand apart in the source and are kept apart here.

As usually defined, the LD50 is the dose at which mortality reaches 50%. In the case of `CCN(CC)CCN=S(=O)(c1ccccc1)c1cccs1` (stereo not drawn) [Example 1, N-(2-Diethylaminoethyl)-S-phenyl-S-(2-thienyl)-sulphoximide], the values for the 50% lethal dose (LD50) at 24 h in data set [1] (setting [7]) and in data set [1] (setting [8]) were 200 mg/kg and 150 mg/kg, respectively. Further, the IC50 in data set [2] turned out to be 1 µg/mL (≈ 3.1 µM); in data set [4], 80 µg/mL (≈ 248 µM); in data set [5], 5 µg/mL (≈ 15.5 µM). Further, the ED100 in data set [3] is 1 mg/kg; in data set [6], over 4 mg/kg.

Take `C[N+](C)(C)CCCN=S(=O)(c1ccccc1)c1cccs1` (stereo not drawn) [Example 2, N-(3-trimethylammoniumpropyl)-S-phenyl-S-(2-thienyl)-sulphoximide iodide]: the LD50 at 24 h in data set [1] (setting [7]) was over 400 mg/kg; in data set [1] (setting [8]) it was 300 mg/kg. For the same compound, the IC50 in data set [2] was 5 µg/mL.

As to `CN(C)CCCN=S(=O)(c1ccccc1)c1cccs1` (centres unmarked) [Example 2], the 50% lethal dose (LD50) at 24 h in data set [1] (setting [7]) was under 800 mg/kg; in data set [1] (setting [8]), 600 mg/kg. Also, the values for the IC50 in data set [2], in data set [4] and in data set [5] were over 1 µg/mL, over 10 µg/mL and 50 µg/mL (≈ 162 µM), respectively.

Take `O=S(=NCCN1CCCC1)(c1ccccc1)c1cccs1` (stereo not drawn) [Example 3, N-(2-Pyrrolidinoethyl)-S-phenyl-S-(2-thienyl)-sulphoximide]: the median lethal dose (LD50) at 24 h in data set [1] (setting [7]) was determined as 150 mg/kg. The IC50 in data set [2] is over 1 µg/mL; in data set [5], 5 µg/mL (≈ 15.6 µM).

With `CCN(CC)CCN=S(=O)(c1ccccc1)c1ccsc1` (stereo not drawn) [Example 4, N-(2-Diethylaminoethyl)-S-phenyl-S-(3-thienyl)-sulphoximide], the LD50 at 24 h in data set [1] (setting [7]) was determined as 200 mg/kg; in data set [1] (setting [8]), 150 mg/kg. The IC50 in data set [2] was determined as 1 µg/mL (≈ 3.1 µM); in data set [4] it was 40 µg/mL (≈ 124 µM); in data set [5], 10 µg/mL (≈ 31 µM). For the same compound, the ED100 in data set [3] was over 2 mg/kg; in data set [6], over 8 mg/kg.

Regarding `CCN(CC)CCN=S(=O)(c1cccs1)c1cccs1` [Example 5, N-(2-Diethylaminoethyl)-S,S-bis-(2-thienyl)-sulphoximide], the LD50 at 24 h in data set [1] (setting [7]) came out at 250 mg/kg; in data set [1] (setting [8]), 100 mg/kg. The IC50 came to 1 µg/mL (≈ 3.04 µM) in data set [2], 40 µg/mL (≈ 122 µM) in data set [4] and 10 µg/mL (≈ 30.4 µM) in data set [5]. Also, the figures for the ED100 in data set [3] and in data set [6] were 2 mg/kg and over 8 mg/kg, respectively.

As to `O=S(=NCCN1CCCCC1)(c1cccs1)c1cccs1` [Example 6, N-(2-Piperidinoethyl)-S,S-bis-(2-thienyl)-sulphoximide], the 50% lethal dose (LD50) at 24 h in data set [1] (setting [7]) turned out to be 200 mg/kg. Besides, the IC50 in data set [2] came out at 5 µg/mL (≈ 14.7 µM); in data set [4] it was 80 µg/mL (≈ 235 µM); in data set [5], 10 µg/mL (≈ 29.4 µM).

With `O=S(=NCCN1CCOCC1)(c1cccs1)c1cccs1` [Example 7, N-(2-Morpholinoethyl)-S,S-bis-(2-thienyl)-sulphoximide], the LD50 at 24 h in data set [1] (setting [7]) is 1000 mg/kg. For the same compound, the results for the IC50 in data set [2] and in data set [5] were 4 µg/mL (≈ 11.7 µM) and 40 µg/mL (≈ 117 µM), respectively.

For the compound `CCN(CC)CCN=S(=O)(c1ccsc1)c1cccs1` (stereo not drawn) [Example 8, N-(2-Diethylaminoethyl)-S-(2-thienyl)-S-(3-thienyl)-sulphoximide], the values for the LD50 at 24 h in data set [1] (setting [7]) and in data set [1] (setting [8]) were under 300 mg/kg and 250 mg/kg, respectively. For the same compound, the results for the IC50 in data set [2], in data set [4] and in data set [5] were 0.5 µg/mL (≈ 1.52 µM), 80 µg/mL (≈ 244 µM) and 2 µg/mL (≈ 6.09 µM), respectively. Further, the figures for the ED100 in data set [3] and in data set [6] were 2 mg/kg and 4 mg/kg, respectively.

With `CCN(CC)CCN=S(=O)(c1ccsc1)c1ccsc1` [Example 9, N-(2-Diethylaminoethyl)-S,S-bis-(3-thienyl)-sulphoximide], the values for the LD50 at 24 h in data set [1] (setting [7]) and in data set [1] (setting [8]) were over 30 mg/kg and 30 mg/kg, respectively. In addition, the IC50 in data set [2] was determined as 0.25 µg/mL (≈ 0.761 µM); in data set [5] it was 10 µg/mL (≈ 30.4 µM). The ED100 in data set [3] was 4 mg/kg; in data set [6] it was over 8 mg/kg.

Take `CCN(CC)CCN=S(=O)(c1ccccc1)c1ccco1` (stereo not drawn) [Example 10, N-(2-Diethylaminoethyl)-S-(2-furyl)-S-phenyl-sulphoximide]: the LD50 at 24 h in data set [1] (setting [7]) worked out at 400 mg/kg; in data set [1] (setting [8]), 150 mg/kg.

For `CCN(CC)CCN=S(=O)(c1ccccc1)c1cccnc1` (stereo not drawn) [Example 12, N-(2-Diethylaminoethyl)-S-phenyl-S-(3-pyridyl)-sulphoximide], the LD50 at 24 h in data set [1] (setting [7]) was determined as 1600 mg/kg.

On to `CCN(CC)CCN=S(=O)(c1ccccc1)c1ccccc1` [Sulfoxifen-Phosphate, N(2-Diethylaminoethyl)-diphenyl-sulfoximin, reference compound], for which the median lethal dose (LD50) at 24 h came to 180 mg/kg in data set [1] (setting [7]) and 175 mg/kg in data set [1] (setting [8]). The IC100 in data set [2] ((ED100)) was 1 µg/mL; in data set [4] ((ED100)) it was 80 µg/mL; in data set [5] ((ED100)), 10 µg/mL. For the same compound, the IC50 in data set [2] came out at 0.1 µg/mL (≈ 0.316 µM); in data set [4], 40 µg/mL (≈ 126 µM); in data set [5], 1 µg/mL (≈ 3.16 µM). Moreover, the ED100 in data set [3] and in data set [6] was 4 mg/kg in each case.
